Laboratory results published in publication PMC9091252 (Nature Communications, 2022).
Values joined by “and” are separate entries in the source; they are usually repeats but may differ in a detail not shown here. Equal entries are not always repeated.

What was measured:
[1] = test system: SARS-CoV-2; assay: AFM inhibition assay: binding probability between SARS-CoV-2 virions and 9-AcSA coated surfaces before and after incubation with oligomers; details: for relative BP, Mean: mean of 3 tips, 0 uM = 1; for relative BP, single tip: normalized to 0 uM = 1
[2] = molecular target: S1 subunit (Severe acute respiratory syndrome coronavirus 2, UniProt P0DTC2); assay: Dynamic force spectroscopy and kinetic on-rate analysis of the S1 – 9-AcSA bond; format: binding, SARS-CoV-2
[3] = molecular target: S1 domain of SARS-CoV-2 (Severe acute respiratory syndrome coronavirus 2, UniProt P0DTC2); assay: FD-based AFM binding probability of S1-functionalized tip on 9-AcSA, SA or streptavidin coated surfaces

CC(=O)N[C@H]1[C@H]([C@H](O)[C@H](O)CO)O[C@@](OCc2cn(CCOc3cc4c(OCCn5cc(CO[C@]6(C(=O)O)C[C@H](O)[C@@H](NC(C)=O)[C@H]([C@H](O)[C@H](O)CO)O6)nn5)cc3Cc3cc(OCCn5cc(CO[C@]6(C(=O)O)C[C@H](O)[C@@H](NC(C)=O)[C@H]([C@H](O)[C@H](O)CO)O6)nn5)c(cc3OCCn3cc(CO[C@]5(C(=O)O)C[C@H](O)[C@@H](NC(C)=O)[C@H]([C@H](O)[C@H](O)CO)O5)nn3)Cc3cc(OCCn5cc(CO[C@]6(C(=O)O)C[C@H](O)[C@@H](NC(C)=O)[C@H]([C@H](O)[C@H](O)CO)O6)nn5)c(cc3OCCn3cc(CO[C@]5(C(=O)O)C[C@H](O)[C@@H](NC(C)=O)[C@H]([C@H](O)[C@H](O)CO)O5)nn3)Cc3cc(OCCn5cc(CO[C@]6(C(=O)O)C[C@H](O)[C@@H](NC(C)=O)[C@H]([C@H](O)[C@H](O)CO)O6)nn5)c(cc3OCCn3cc(CO[C@]5(C(=O)O)C[C@H](O)[C@@H](NC(C)=O)[C@H]([C@H](O)[C@H](O)CO)O5)nn3)Cc3cc(OCCn5cc(CO[C@]6(C(=O)O)C[C@H](O)[C@@H](NC(C)=O)[C@H]([C@H](O)[C@H](O)CO)O6)nn5)c(cc3OCCn3cc(CO[C@]5(C(=O)O)C[C@H](O)[C@@H](NC(C)=O)[C@H]([C@H](O)[C@H](O)CO)O5)nn3)C4)nn2)(C(=O)O)C[C@@H]1O [compound 4]
relative BP, Mean ([1]; 1 uM): 0.7825
relative BP, single tip ([1]; 1 uM, listed as Pillar[5]arene NonAc): 0.6071 and 0.8687 and 0.8718
relative BP, Mean ([1]; 10 uM): 0.836
relative BP, single tip ([1]; 10 uM, listed as Pillar[5]arene NonAc): 0.7738 and 0.9394 and 0.7949
relative BP, Mean ([1]; 100 uM): 0.9261
relative BP, single tip ([1]; 100 uM, listed as Pillar[5]arene NonAc): 0.9286 and 0.9394 and 0.9103

9-O-acetylated sialic acid [9-AcSA]
IC50 [1]: > 100 µM
relative BP, Mean ([1]; 1 uM): 0.8501
relative BP, single tip ([1]; 1 uM): 0.7609 and 0.6994 and 1.09
relative BP, Mean ([1]; 10 uM): 0.807
relative BP, single tip ([1]; 10 uM): 0.7029 and 0.638 and 1.08
relative BP, Mean ([1]; 100 uM): 0.638
relative BP, single tip ([1]; 100 uM): 0.587 and 0.4969 and 0.83
reduction in the binding probability ([1]; over the explored range 1, 10, 100 µM): 20-30%
koff ([2]; Bell-Evans fit, single S1 – 9-AcSA bond): 0.24 ± 0.2 s⁻¹
KD ([2]; ratio between koff and kon): low micromolar range
Kd ([2]; ratio between koff and kon): 5.7 ± 5 µM
binding probability in competition assay with free 9-AcSA ([3]; S1 tip on 9-AcSA surface, free 1 mM 9-AcSA): significantly lower BP
difference in binding probability between acetylated and non-acetylated SA ([3]; S1 tip, 9-AcSA versus SA coated surface): ~ 3 fold
